Results from US12180187B2, “1-phenyl-5-azinylpyrazolyl-3-oxyalkyl acids and their use for controlling unwanted plant growth” (BAYER AKTIENGESELLSCHAFT, priority 2019, dated 2024).

How the values were obtained:
AMARE [1] = experiment: Pre-emergence action against AMARE, 1280 g/ha; format: in vivo, Amaranthus retroflexus; details: scored visually after about 3 weeks vs untreated controls (100% = plants have died)
Method in brief: (§1)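 Each pot was doubly sown in sandy loam and covered, then its soil surface was treated with compound suspension or emulsion containing 0.5% additive at 600 L/ha water. Plants grew in a greenhouse; effect was rated visually as percentages versus controls after about 3 weeks.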

POAAN [2] = experiment: Pre-emergence action against POAAN, 1280 g/ha; format: in vivo, Poa annua; details: visual scoring after about 3 weeks vs untreated controls, 100% = plants have died, 0% = like control plants
Method in brief: as §1

VERPE [3] = experiment: Pre-emergence action against VERPE, 1280 g/ha; format: in vivo, Veronica persica; details: scored visually after about 3 weeks vs untreated controls (100% = plants have died)
Method in brief: as §1

SETVI [4] = experiment: Pre-emergence action against SETVI, 1280 g/ha; format: in vivo, Setaria viridis; details: visual scoring after about 3 weeks vs untreated controls, 100% = plants have died, 0% = like control plants
Method in brief: as §1

POAAN [5] = experiment: Post-emergence action against POAAN, 1.28 kg/ha; format: in vivo, Poa annua; details: dosage 1280 g/ha, visual rating about 3 weeks after treatment vs untreated controls
Method in brief: (§2)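 Foliar application at the one-leaf stage: compound as WP or EC in water with 0.5% additive, sprayed at 600 L/ha. Plants are kept about 3 weeks in the greenhouse, then % herbicidal action is estimated visually (100% = death).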

AMARE [6] = experiment: Post-emergence action against AMARE, 1.28 kg/ha; format: in vivo, Amaranthus retroflexus; details: dosage 1280 g/ha, visual rating about 3 weeks after treatment vs untreated controls (100% = plants died)
Method in brief: as §2

DIGSA [7] = experiment: Pre-emergence action against DIGSA, 1280 g/ha; format: in vivo, Digitaria sanguinalis; details: visual scoring after about 3 weeks vs untreated controls, 100% = plants have died, 0% = like control plants
Method in brief: as §1

ECHCG [8] = experiment: Pre-emergence action against ECHCG, 1280 g/ha; format: in vivo, Echinochloa crus-galli; details: visual scoring after about 3 weeks vs untreated controls, 100% = plants have died, 0% = like control plants
Method in brief: as §1

DIGSA [9] = experiment: Post-emergence action against DIGSA, 1.28 kg/ha; format: in vivo, Digitaria sanguinalis; details: dosage 1280 g/ha, visual rating about 3 weeks after treatment vs untreated controls
Method in brief: as §2

ALOMY [10] = experiment: Pre-emergence action against ALOMY, 1280 g/ha; format: in vivo, Alopecurus myosuroides; details: visual scoring after about 3 weeks vs untreated controls, 100% = plants have died, 0% = like control plants
Method in brief: as §1

MATIN [11] = experiment: Pre-emergence action against MATIN, 1280 g/ha; format: in vivo, Tripleurospermum inodorum (Matricaria inodora); details: scored visually after about 3 weeks vs untreated controls (100% = plants have died)
Method in brief: as §1

MATIN [12] = experiment: Post-emergence action against MATIN, 1.28 kg/ha; format: in vivo, Tripleurospermum inodorum (Matricaria inodora); details: dosage 1280 g/ha, visual rating about 3 weeks after treatment vs untreated controls (100% = plants died)
Method in brief: as §2

VERPE [13] = experiment: Post-emergence action against VERPE, 1.28 kg/ha; format: in vivo, Veronica persica; details: dosage 1280 g/ha, visual rating about 3 weeks after treatment vs untreated controls (100% = plants died)
Method in brief: as §2

LOLRI [14] = experiment: Pre-emergence action against LOLRI, 1280 g/ha; format: in vivo, Lolium rigidum; details: visual scoring after about 3 weeks vs untreated controls, 100% = plants have died, 0% = like control plants
Method in brief: as §1

ECHCG [15] = experiment: Post-emergence action against ECHCG, 1.28 kg/ha; format: in vivo, Echinochloa crus-galli; details: dosage 1280 g/ha, visual rating about 3 weeks after treatment vs untreated controls
Method in brief: as §2

ALOMY [16] = experiment: Post-emergence action against ALOMY, 1.28 kg/ha; format: in vivo, Alopecurus myosuroides; details: dosage 1280 g/ha, visual rating about 3 weeks after treatment vs untreated controls
Method in brief: as §2

STEME [17] = experiment: Pre-emergence action against STEME, 1280 g/ha; format: in vivo, Stellaria media; details: scored visually after about 3 weeks vs untreated controls (100% = plants have died)
Method in brief: as §1

SETVI [18] = experiment: Post-emergence action against SETVI, 1.28 kg/ha; format: in vivo, Setaria viridis; details: dosage 1280 g/ha, visual rating about 3 weeks after treatment vs untreated controls
Protocol: (§3) • a) Seeds of mono- and dicotyledonous weed plants are placed in plastic pots in sandy loam soil (twin sowing with one species each of mono- or dicotyledonous weed plants per pot), covered with soil and cultivated in a greenhouse under controlled growth conditions. 2 to 3 weeks after sowing, the test plants are treated at the one-leaf stage. The compounds of the invention, formulated in the form of wettable powders (WP) or as emulsion concentrates (EC), are applied to the green parts of the plants as aqueous suspension or emulsion with addition of 0.5% additive at a water application rate equivalent to 600 litres per hectare. After the test plants have been kept in the greenhouse under optimum growth conditions for about 3 weeks, the activity of the preparations is rated visually in comparison to untreated controls. For example, 100% activity=the plants have died, 0% activity=like control plants. As shown by the results, compounds of the general formula (I) of the invention, in post-emergence treatment, have very good herbicidal efficacy (90% to 100% herbicidal action) against harmful plants such as Abutilon theophrasti, Digitaria sanguinalis, Echinochloa crus-galli, Matricaria inodora, Poa annua, at an application rate of 1.28 kg of active substance per hectare.

LOLRI [19] = experiment: Post-emergence action against LOLRI, 1.28 kg/ha; format: in vivo, Lolium rigidum; details: dosage 1280 g/ha, visual rating about 3 weeks after treatment vs untreated controls
Protocol: as §3

STEME [20] = experiment: Post-emergence action against STEME, 1.28 kg/ha; format: in vivo, Stellaria media; details: dosage 1280 g/ha, visual rating about 3 weeks after treatment vs untreated controls (100% = plants died)
Method in brief: as §2

ABUTH = experiment: Post-emergence action against ABUTH, 1.28 kg/ha; format: in vivo, Abutilon theophrasti; details: dosage 1280 g/ha, visual rating about 3 weeks after treatment vs untreated controls (100% = plants died)
Method in brief: as §2

MATIN [21] = experiment: Pre-emergence action at 320 g/ha against MATIN; format: in vivo, Tripleurospermum inodorum (Matricaria inodora); details: visual scoring after about 3 weeks vs untreated controls
From the text: (§4) b) Seeds of monocotyledonous and dicotyledonous weed plants and crop plants are placed in plastic or organic planting pots and covered with soil. The compounds of the invention, formulated in the form of wettable powders (WP) or as emulsion concentrates (EC), are then applied onto the surface of the covering soil as aqueous suspension or emulsion with addition of 0.5% additive at a water application rate of 600 l/ha (converted). After the treatment, the pots are placed in a greenhouse and kept under good growth conditions for the trial plants. After about 3 weeks, the effect of the preparations is scored visually in comparison with untreated controls as percentages. For example, 100% activity=the plants have died, 0% activity=like control plants. Tables 13 to 26 below show the effects of selected compounds of the general formula (I) on various harmful plants and at an application rate corresponding to 320 g/ha, which were obtained by the experimental procedure mentioned above.

AMARE [22] = experiment: Pre-emergence action at 320 g/ha against AMARE; format: in vivo, Amaranthus retroflexus; details: visual scoring after about 3 weeks vs untreated controls
Method in brief: (§5)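 Greenhouse pot trial in which formulated compound (wettable powder or emulsion concentrate) goes onto the soil surface right after sowing, at a spray volume of 600 l/ha including 0.5% additive. Effects are judged visually after about 3 weeks (0% = like control, 100% = dead).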

ECHGC = experiment: Pre-emergence action at 320 g/ha against ECHGC; format: in vivo, Echinochloa crus-galli; details: visual scoring after about 3 weeks vs untreated controls
From the text: as §4

POLCO = experiment: Pre-emergence action at 320 g/ha against POLCO; format: in vivo, Fallopia convolvulus (Polygonum convolvulus); details: visual scoring after about 3 weeks vs untreated controls
Method in brief: as §5

VERPE [23] = experiment: Pre-emergence action at 320 g/ha against VERPE; format: in vivo, Veronica persica; details: visual scoring after about 3 weeks vs untreated controls
From the text: as §4

VIOTR = experiment: Pre-emergence action at 320 g/ha against VIOTR; format: in vivo, Viola tricolor; details: dosage 320 g/ha
Method in brief: as §5

ALOMY [24] = experiment: Pre-emergence action at 320 g/ha against ALOMY; format: in vivo, Alopecurus myosuroides; details: scored visually after about 3 weeks vs untreated controls (100% = plants have died)
Method in brief: as §5

SETVI [25] = experiment: Pre-emergence action at 320 g/ha against SETVI; format: in vivo, Setaria viridis; details: visual scoring after about 3 weeks vs untreated controls
From the text: as §4

DIGSA [26] = experiment: Pre-emergence action at 320 g/ha against DIGSA; format: in vivo, Digitaria sanguinalis; details: visual scoring after about 3 weeks vs untreated controls
From the text: as §4

LOLRI [27] = experiment: Pre-emergence action at 320 g/ha against LOLRI; format: in vivo, Lolium rigidum; details: visual scoring after about 3 weeks vs untreated controls
From the text: as §4

AVEFA = experiment: Pre-emergence action at 320 g/ha against AVEFA; format: in vivo; details: visual scoring after about 3 weeks vs untreated controls
From the text: as §4

Row | Structure (SMILES) | Pre-emergence action against AMARE (AMARE [1]) | Pre-emergence action against POAAN (POAAN [2]) | Pre-emergence action against VERPE (VERPE [3]) | Pre-emergence action against SETVI (SETVI [4]) | Post-emergence action against POAAN (POAAN [5]) | Post-emergence action against AMARE (AMARE [6]) | Pre-emergence action against DIGSA (DIGSA [7]) | Pre-emergence action against ECHCG (ECHCG [8]) | Post-emergence action against DIGSA (DIGSA [9]) | Pre-emergence action against ALOMY (ALOMY [10]) | Pre-emergence action against MATIN (MATIN [11]) | Post-emergence action against MATIN (MATIN [12]) | Post-emergence action against VERPE (VERPE [13]) | Pre-emergence action against LOLRI (LOLRI [14]) | Post-emergence action against ECHCG (ECHCG [15]) | Post-emergence action against ALOMY (ALOMY [16]) | Pre-emergence action against STEME (STEME [17]) | Post-emergence action against SETVI (SETVI [18]) | Post-emergence action against LOLRI (LOLRI [19]) | Post-emergence action against STEME (STEME [20]) | also measured
1 | O=C(COc1nn(-c2ccccc2F)c(-c2ccc(F)nc2)c1Br)NO [Example X-023] | 100% | 100% | 100% | 100% | 100% | 100% | 100% | 100% | 100% | 90% | 100% | 100% | 100% | 100% | 100% | 100% | 100% | 90% | 100% | 100% | Post-emergence action against ABUTH (ABUTH): 90%
2 | CCOC(=O)COc1nn(-c2ccccc2F)c(-c2ccc(F)nc2)c1C1CC1 [VII-119] | 100% | 100% | 100% | 100% | 100% | 100% | 100% | 100% | 100% | 100% | 100% | 100% | 100% | 100% | 100% | 100% | 100% | 100% | 100% | 100% | Post-emergence action against ABUTH (ABUTH): 90%
3 | COC(=O)C(C)Oc1nn(-c2ccccc2F)c(-c2ccc(F)nc2)c1Br (centres unmarked) [VII-060] | – | – | – | – | – | – | – | – | – | – | – | – | – | – | – | – | – | – | – | – | Pre-emergence action against MATIN in % (MATIN [21]): 90%; Pre-emergence action against AMARE in % (AMARE [22]): 100%; Pre-emergence action against ECHGC in % (ECHGC): 90%; Pre-emergence action against POLCO in % (POLCO): 90%; Pre-emergence action against VERPE in % (VERPE [23]): 100%; Pre-emergence action against VIOTR in % (VIOTR): 100%; Pre-emergence action at 320 g/ha against ALOMY in % (ALOMY [24]): 100%; Pre-emergence action against SETVI in % (SETVI [25]): 90%; Pre-emergence action against DIGSA in % (DIGSA [26]): 100%; Pre-emergence action against LOLRI in % (LOLRI [27]): 100%; Pre-emergence action against AVEFA in % (AVEFA): 90%
4 | O=C(O)C(F)Oc1nn(-c2ccccc2F)c(-c2ccc(F)nc2)c1Br (centres unmarked) [VII-057-a] | – | – | – | – | – | – | – | – | – | – | – | – | – | – | – | – | – | – | – | – | Pre-emergence action against MATIN in % (MATIN [21]): 90%; Pre-emergence action against AMARE in % (AMARE [22]): 100%; Pre-emergence action against ECHGC in % (ECHGC): 80%; Pre-emergence action against POLCO in % (POLCO): 80%; Pre-emergence action against VIOTR in % (VIOTR): 100%; Pre-emergence action against SETVI in % (SETVI [25]): 100%; Pre-emergence action against DIGSA in % (DIGSA [26]): 100%; Pre-emergence action against LOLRI in % (LOLRI [27]): 90%; Pre-emergence action against AVEFA in % (AVEFA): 80%
